From patent US5658906A, “Cysteine protease and serine protease inhibitors” (Cephalon, Inc., priority 1996, dated 1997)

Legend:
Calpain I = target: T1, Calpain I (Homo sapiens, UniProt P07384); test: Inhibition and rate of inactivation of calpain I (Succ-Leu-Tyr-MNA hydrolysis); type: biochemical; conditions: mean of three or more independent analyses, corrected for substrate, k2 = kapp(1+[S]/Km), read-out: k2 (second order rate constant of inactivation), A = Calpain I
T1 construct: Calpain I was purified from human red blood cells; from tissue; host or cells: human red blood cells (packed, outdated)
T1 sequence (P07384 1-714): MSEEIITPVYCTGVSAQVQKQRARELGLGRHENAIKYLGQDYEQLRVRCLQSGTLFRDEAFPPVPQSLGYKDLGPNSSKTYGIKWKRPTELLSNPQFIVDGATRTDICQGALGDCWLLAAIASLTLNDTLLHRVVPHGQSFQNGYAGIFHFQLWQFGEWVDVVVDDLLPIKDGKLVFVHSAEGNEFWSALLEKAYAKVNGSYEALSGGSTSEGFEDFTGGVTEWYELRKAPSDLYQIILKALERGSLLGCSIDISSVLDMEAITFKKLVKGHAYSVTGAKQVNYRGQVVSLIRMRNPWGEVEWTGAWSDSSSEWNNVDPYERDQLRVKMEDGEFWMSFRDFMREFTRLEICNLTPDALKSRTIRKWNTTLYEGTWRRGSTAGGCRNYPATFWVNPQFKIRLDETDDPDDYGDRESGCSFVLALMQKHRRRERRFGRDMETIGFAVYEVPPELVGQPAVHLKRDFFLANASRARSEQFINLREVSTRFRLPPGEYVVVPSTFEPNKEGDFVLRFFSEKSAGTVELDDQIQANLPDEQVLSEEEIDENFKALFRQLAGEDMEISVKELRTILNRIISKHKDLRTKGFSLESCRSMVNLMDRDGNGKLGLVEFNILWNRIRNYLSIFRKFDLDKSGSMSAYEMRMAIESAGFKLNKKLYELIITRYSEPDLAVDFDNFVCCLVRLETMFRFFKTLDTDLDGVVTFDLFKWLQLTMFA
T1 sequence (P04632 1-268 partner): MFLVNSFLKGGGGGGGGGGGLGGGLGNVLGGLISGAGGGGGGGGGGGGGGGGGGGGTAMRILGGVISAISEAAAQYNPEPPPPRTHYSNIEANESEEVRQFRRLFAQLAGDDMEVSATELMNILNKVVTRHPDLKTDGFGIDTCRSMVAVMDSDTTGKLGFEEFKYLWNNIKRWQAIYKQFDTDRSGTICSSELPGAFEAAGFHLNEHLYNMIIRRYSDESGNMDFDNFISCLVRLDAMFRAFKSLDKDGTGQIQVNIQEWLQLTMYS
Protocol: To evaluate inhibitory activity of our compounds, stocks (40 times concentrated) of each compound to be tested were prepared in 100% anhydrous dimethyl sulfoxide (DMSO) and 5 μl of each inhibitor preparation was aliquoted into each of three wells of a 96 well plate. Calpain I was purified from human red blood cells using a modification of the method described by Lee, W. J. et al. (Biochem. Internatl. (1990)22(1): 163-171). Briefly, 3 units of packed outdated red blood cells were washed 3× by repeated centrifugation at 500 rpm for 10 minutes through 900 mls of 0.9% NaCl. Cells were lysed in 20 mM Tris/1 mM EDTA/1 mM EGTA/5 mM mercaptoethanol (Buffer A) and centrifuged for 1 hour at 12,000 rpm in a GSA rotor using a Sorval centrifuge. The supernatant was collected and applied to a DEAE-sepharose FF column equilibrated in Buffer A+25 mM NaCl. After washing the column in Buffer A+25 mM NaCl, the bound protein was eluted at 117 ml/hr with a 25 mM to 150 mM NaCl linear gradient in Buffer A collecting 200, 10 mL fractions. Two μl of every fifth fraction was applied to nitrocelluose using a dot blot apparatus and calpain containing fractions identified by Western analysis. For detection of calpain, nitrocellulose sheets were first blocked in 5% Blotto (5% Carnation instant milk/10 mM Tris/[…]150 mM NaCl) for 30 minutes, followed by incubation for 1 hour in antibody directed against Calpain I (rabbit anti-human calpain I polyclonal sera, 1:1000 dilution in 5% Blotto). After three 5 minutes washes in 10 mM Tris/150 mM NaCl/0.05% Tween 20 the nitrocellulose was incubated for 1 hour in secondary alkaline phosphatase conjugated antibody (Biorad Cat#170-6518 1:2000 in 5% Blotto). After three 5 minutes washes in 10 mM Tris/150 mM NaCl/0.05% Tween 20 and 1 wash in 10 mM Tris/150 mM NaCl the nitrocellulose was incubated for up to 2 hours in a colorimetric substrate solution (Biorad Alkaline Phosphatase Substrate conjugate kit, cat#170-6432). The reaction was stopped by washing in water. After fractions containing calpain, and those in between, were pooled, solid ammonium sulfate was added to achieve a 30% solution and the mixture stirred for 1 hour at 4° C. Following collection of the precipitate by centrifugation for 1 hour at 4° C. at 12K rpm in a GSA rotor, the supernatant was collected and brought to 45% in ammonium sulfate. After stirring for 1 hour at 4° C., centrifugation was repeated. The supernatant was discarded and the precipitate resuspended in approximately 7 mls and dialyzed overnight at 4° C. against Buffer A+50 mM NaCl. The sample was then applied to a S300 gel filtration column preequilibrated in Buffer A+50 mM NaCl, washed and eluted at a flow rate of 20 ml/hr, collecting 200, 4 ml fractions. The peak of calpain was determined by assaying aliquots of every fifth fraction for enzyme activity monitored by the hydrolysis of a fluorogenic dipeptide substrate as described below. The peak fractions were pooled and the enzyme preparation used to test compounds for inhibitory activity. As an alternate to enzyme isolated from tissue sources, recombinant human calpain I has also been used to monitor compounds for inhibitory activity.
The foregoing enzyme preparation was diluted into assay buffer (i.e., 50 mM Tris, 50 mM NaCl, 1 mM EDTA, 1 mM EGTA, and 5 mM β-mercaptoethanol, pH 7.5 including 0.2 mM Succ-Leu-Tyr-MNA) and 175 μl aliquoted into the same wells containing the independent inhibitor stocks as well as to positive control wells containing 5 μl DMSO, but no compound. To start the reaction, 20 μl of 50 mM CaCl2 in assay buffer was added to all wells of the plate, excepting three, which were used as background signal baseline controls. Substrate hydrolysis was monitored every 5 minutes for a total of 30 minutes using Flouroskan II (ex=340 nm; em=430 nm). Substrate hydrolysis in the absence of inhibitor was linear for up to 15 minutes. […]

Cathepsin B = target: T2, Cathepsin B (Homo sapiens, UniProt P07858); test: Inhibition and rate of inactivation of cathepsin B (Cbz-Phe-Arg-AMC hydrolysis); type: biochemical; conditions: pH 6.0, 0.1 mM substrate, read-out: k2 (second order rate constant of inactivation), C = Cathepsin B
T2 construct: purchased Calbiochem 219364
Protocol: Additionally, the order of reagents added to the plate was altered because both enzymes are constitutively active. Following inhibitor addition to the plates appropriate 2× concentrated stock dilutions of the enzyme preparations were made in assay buffer and 100 ul added to each well. The assay was initiated by addition of 100 ul of 2× concentrated stock dilution of substrate in assay buffer. Substrate hydrolysis was monitored using a Fluroskan II (ex=390 nm; em=460 nm).
Inhibition of enzyme activity was calculated as the percent decrease in the rate of substrate hydrolysis in the presence of inhibitor (.upsilon.i) relative to the rate in its absence (.upsilon.o). Comparison between .upsilon.o and .upsilon.i was made within the linear range for substrate hydrolysis. For screening, compounds were tested at 10 μM. Compounds having ≥50% inhibition at 10 μM were considered active. Apparent second order rate constants were determined from analysis of reaction progress curves under pseudo-first order conditions. Each determination represents the mean of three or more independent single cuvette analyses continually monitored via a Perkin-Elmer LS50B spectrofluorimeter. The rate of inhibition of hydrolysis was obtained by fitting the curve to the exponential equation (1):
y=Ae^-k.spsb.obs·t +B (1)
where y (Pt) is the product formed at time t. A and B are constants. A, the amplitude of the reaction, is given by [Po -P.varies. ] and B (=P.varies.) is the maximal product formed when the reaction is […]. This was corrected for the presence of equation (2): […]

[1] = system: calpain I in Molt-4 cells (α-spectrin breakdown products); test: Inhibition of calpain activation in intact Molt-4 cells (calpain-generated spectrin breakdown products); type: cell-based; conditions: Homo sapiens, calcium and ionophore (ionomycin), read-out: % Inhibition of BDPs (10 μM)
α-chymotrypsin = target: T3, α-chymotrypsin (Bos taurus, UniProt P00766); test: Inhibition of the serine protease α-chymotrypsin (Succ-Ala-Ala-Pro-Phe-AMC hydrolysis); type: biochemical; conditions: pH 7.5, 0.03 mM substrate
T3 construct: purchased Sigma Chem. Co. C-3142
Protocol: Additionally,because α-chymotrypsin is not a calcium sensitive enzyme and is constituitively active, following addition of inhibitor stocks to the 96 well plates, 100 ul of a 2 fold concentrated stock of enzyme in dilution buffer was first added and the reaction started by addition of 100 ul of a 2 fold concentrated stock of substrate in assay buffer. Substrate hydrolysis was monitored every 5 minutes up to 30 minutes using a Fluoroskan II ([…]).

Structure (SMILES)	kinact/KI (Calpain I) [M⁻¹ s⁻¹]	kinact/KI (Cathepsin B) [M⁻¹ s⁻¹]	inhibition at 10 µM (α-chymotrypsin) [%]	inhibition at 10 µM [1] [%]
CC(C)C[C@H](NC(=O)[C@H](CC(C)C)NC(=O)OCc1ccccc1)C(=O)COn1nnc2ccccc21 [Example 4, 1-[N-[N-Benzyloxycarbonyl-L-leucyl]-3S-5-methyl-3-amino-2-oxohexyloxy]benzotriazole]	175000	19000		57
CC(C)C[C@H](NC(=O)OCc1ccccc1)C(=O)N[C@@H](Cc1ccccc1)C(=O)COn1nnc2ccc(C(F)(F)F)cc21 [Example 7, 1-[N-[N-Benzyloxycarbonyl-L-leucyl]-3S-4-phenyl-3-amino-2-oxobutyloxy]-6'-trifluoromethylbenzotriazole]	160000	18000	99	
CC(C)C[C@H](NC(=O)OCc1ccccc1)C(=O)N[C@@H](Cc1ccccc1)C(=O)COn1nnc2ccc(Cl)cc21 [Example 8, 1-[N-[N-Benzyloxycarbonyl-L-leucyl]-3S-4-phenyl-3-amino-2-oxybutyloxy]-6'-chlorobenzotriazole]	101000			57
COc1ccc2nnn(OCC(=O)[C@H](Cc3ccccc3)NC(=O)[C@H](CC(C)C)NC(=O)OCc3ccccc3)c2c1 [Example 9, 1-[N-[N-Benzyloxycarbonyl-L-leucyl]-3S-4-phenyl-3-amino-2-oxobutyloxy]-6'-methoxybenzotriazole]	125000	52000	83	
CC(C)C[C@H](NC(=O)OCc1ccccc1)C(=O)N[C@@H](Cc1ccccc1)C(=O)COn1nnc2ccc(F)cc21 [Example 10, 1-[N-[N-Benzyloxycarbonyl-L-leucyl]-3S-4-phenyl-3-amino-2-oxobutyloxy]-6'-fluorobenzotriazole]	50000		89	

Now from value to molecule, other results behind:

kinact/KI (Calpain I) [M⁻¹ s⁻¹]	kinact/KI (Cathepsin B) [M⁻¹ s⁻¹]	inhibition at 10 µM (α-chymotrypsin) [%]	Structure (SMILES)	inhibition at 10 µM [1] [%]
98000	28000	100	Cc1cc2nnn(OCC(=O)[C@H](Cc3ccccc3)NC(=O)[C@H](CC(C)C)NC(=O)OCc3ccccc3)c2cc1Cl [Example 11, 1-[N-[N-Benzyloxycarbonyl-L-leucyl]-3S-4-phenyl-3-amino-2-oxobutyloxy]-6'-chloro-5'-methylbenzotriazole]	
46000		94	Cc1cccc2c1nnn2OCC(=O)[C@H](Cc1ccccc1)NC(=O)[C@H](CC(C)C)NC(=O)OCc1ccccc1 [Example 12, 1-[N-[N-Benzyloxycarbonyl-L-leucyl]-3S-4-phenyl-3-amino-2-oxobutyloxy]-4'-methylbenzotriazole]	
93000			CC(C)C[C@H](NC(=O)OCc1ccccc1)C(=O)N[C@@H](Cc1ccccc1)C(=O)COn1nnc2c(F)c(F)c(F)c(F)c21 [Example 16, 1-[N-[N-Benzyloxycarbonyl-L-leucyl]-3S-4-phenyl-3-amino-2-oxybutyloxy]-4',5',6',7'-tetrafluorobenzotriazole]	64
57000			CC(C)C[C@H](NC(=O)OCc1ccccc1)C(=O)N[C@@H](Cc1ccccc1)C(=O)COn1nnc2ncccc21 [Example 19, 1-[N-[N-Benzyloxycarbonyl-L-leucyl]-3S-4-phenyl-3-amino-2-oxybutyloxy]-(1H)-triazolo[4,5-b]pyridine]	54
67000	300000		CC(C)C[C@H](NC(=O)OCc1ccccc1)C(=O)N[C@@H](Cc1ccccc1)C(=O)COn1nnc2c(F)c(F)ccc21 [Example 25, 1-[N-[N-Benzyloxycarbonyl-L-leucyl]-3S-4-phenyl-3-amino-2-oxybutyloxy]-4',5'-difluorobenzotriazole]	52
46000	55000	100	CC(C)CC(CC(=O)C1c2ccccc2Oc2ccccc21)C(=O)N[C@@H](Cc1ccccc1)C(=O)COn1nnc2ccccc21 (stereo partly drawn) [Example 39, 1-[N-[2-(2-Methylpropyl)-1,4-dioxo-4-(xanthen-9-yl)butyl]-3S-3-amino-2-oxo-4-phenylbutyloxy]benzotriazole]	
2700	48000	100	CC(C)CC(CC(=O)C1c2ccccc2Oc2ccccc21)C(=O)N[C@@H](CC(C)C)C(=O)COn1nnc2ccccc21 (stereo partly shown) [Example 40]	
